Tests used:
Format in all cases: cell-based, Cryptosporidium parvum
C. parvum [1] = conditions: compound at EC90; for Invasion Assay: Mean % Inhibition (parasites), Average: average of replicates; for Invasion Assay: Mean % Inhibition (parasites), Replicate 1a: single biological replicate 1; for Invasion Assay: Mean % Inhibition (parasites), Replicate 2a: single biological replicate 2
Protocol: The first step in infection is host cell invasion, which involves a complex process encompassing oocyst excystation, parasite motility, adhesion, and parasitophorous vacuole formation (Fig. 2a). Our strategy to assay for compounds affecting invasion was simply to expose C. parvum to compounds immediately after triggering excystation and throughout the invasion process, and then enumerate the parasite vacuoles after 3 h, prior to allowing the parasites to replicate (summarized in Fig. 2b).
Fig. 2 Invasion Assay. a Overview of life cycle stage investigated during the invasion assay. Representative TEM images of a C. parvum oocyst and HCT-8 cell shortly after infection (Scale bar = 500 nm). b Schematic of experimental design. […] Each point represents the mean and SD of at least two biological replicates with four technical replicates per experiment.
C. parvum invasion inhibition was measured by modifying the 48 h growth inhibition assay described above. […] In parallel, Iowa strain oocysts were excysted. […] Assay plates were incubated at 37 °C and 5% CO2 for 3 h.

C. parvum [2] = assay: DNA replication assay (EdU incorporation); conditions: compound at EC90; for DNA Synthesis Assay: Mean % Inhibition of EdU-labeling (normalized to parasite numbers), Average: average of replicates; for DNA Synthesis Assay: Mean % Inhibition of EdU-labeling (normalized to parasite numbers), Replicate 1: single replicate 1; for DNA Synthesis Assay: Mean % Inhibition of EdU-labeling (normalized to parasite numbers), Replicate 2: single replicate 2; for DNA Synthesis Assay: Mean % Inhibition of EdU-labeling (normalized to parasite numbers), Replicate 3: single replicate 3
Excerpt: Following cell invasion, Cryptosporidium trophozoites grow and multiply to give rise to multinucleated type I meronts (Fig. 3a). The thymidine analog 5-ethynyl-2′-deoxyuridine (EdU) is efficiently incorporated into newly synthesized DNA, and can be detected using click chemistry. We used EdU to measure parasite intracellular DNA replication, as a surrogate for the more complex phenotype of intracellular growth and division. The approach for differentially labeling newly synthesized parasite DNA compared to host cell DNA was to take advantage of the fact that C. parvum replicates more quickly than the nearly confluent host cells. Thus, by adding EdU shortly before egress, it was possible to preferentially label replicating parasites (Fig. 3b, c). DNA staining with Hoechst labeled all of the host and parasite DNA, making it challenging to visualize and quantify parasite DNA. A simple DNA stain would also not distinguish pre-existing DNA from newly synthesized DNA (Fig. 3c). In contrast, EdU labeling only occurred with incorporation into newly synthesized DNA. Incorporated EdU was then easily stained for immunofluorescence and labeled parasites were quantified using high-content microscopy and an NIH ImageJ macro (Fig. 3c, DMSO condition). The […] hydroxyurea (10 mM), a known inhibitor of DNA replication, was used as a positive control for assay validation. […] Compounds with activity in this assay cannot be concluded to specifically target DNA replication, which is a complex phenotype.
Confluent HCT-8 cell monolayers in glass bottom plates were infected with C. parvum, and compounds were added at EC90 following invasion. At 9 h post-infection, 10 µM EdU was added, followed by incubation for another 2 h, and then washing, fixing, and staining for microscopy. […] 40 × dry objective (NA = 0.7); scale = 5 µm. Arrows indicate selected parasites with EdU-labeled DNA. d Quantification of EdU incorporation. […] Data are mean and SD of 2–5 biological replicates.
After incubation of cells with EdU for 2 h, cells were washed 3 times with PBS-D-gal and then fixed with PBS containing 4% PFA. Cells were then permeabilized and stained for EdU using the Click-iT® assay kit (Thermo Fisher Scientific, catalog# C10340) as per the manufacturer’s instructions. Cells were then imaged by focusing on parasites (note that the host cell nuclei are in a different focal plane) using a 40 × dry objective (0.7 NA) and EdU, and lectin numbers quantified using ImageJ software and the custom macro in Supplementary Method 1.

[3] = system: C. parvum DMC1 expression; assay: Sexual differentiation assay (DMC1 expression); conditions: compound at asexual EC90, 48-72 h; for Asexual to sexual differentiation: Mean % DMC1 inhibition (normalized to host nuclei), Average: average of replicates; for Asexual to sexual differentiation: Mean % DMC1 inhibition (normalized to host nuclei), Replicate 1a: single replicate 1; for Asexual to sexual differentiation: Mean % DMC1 inhibition (normalized to host nuclei), Replicate 2a: single replicate 2; for Asexual to sexual differentiation: Mean % DMC1 inhibition (normalized to host nuclei), Replicate 3a: single replicate 3
Excerpt: We utilized DMC1 as a marker of C. parvum sexual development, and used the anti-DMC1 monoclonal antibody to develop a moderate-throughput high-content microscopy assay for characterizing anticryptosporidial compounds (Fig. 6a). […] Therefore, in order to enable numerical comparison of the ability of compounds to block sexual development with moderate throughput, we adopted a strategy of reporting the percent inhibition of DMC1 expression by the previously determined EC90 of each compound in the standard asexual development assay (Fig. 6c and Supplementary Table 2).
Fig. 6 Assay to measure asexual-to-sexual-stage conversion. a Schematic of the experimental approach. […] For b and c the mean and SD combined from at least two biological replicates with four technical replicates per experiment are shown. […] At given time points post-infection, infected cells were washed 3 times with PBS containing 111 mM of D-galactose, fixed for 15 min at room temperature with 4% paraformaldehyde in PBS, and permeabilized with 0.25% triton X-100 in PBS for 10 min at 37 °C. Cells were then washed 3 times with PBS and blocked at least overnight at 4 °C with 1% BSA in PBS (blocking buffer). Cells were stained with monoclonal antibody (1H10G7), either neat culture supernatant or 12.8 µg/mL of purified IgG in blocking buffer for 1 h at 37 °C, followed by 2 washes with PBS. Cells were then co-stained with a 1:500 dilution (4 µg/mL) of Alexa Fluor 568 goat anti-mouse IgG (Invitrogen, catalog# A-11004) and 1.33 µg/mL fluorescein-labeled Vicia villosa lectin (Vector Laboratories, catalog# FL-1231) diluted in blocking buffer for 1 h at 37 °C. Stains were then removed and 0.09 mM Hoechst 33258 (AnaSpec, catalog# AS-83219) also diluted in blocking buffer was added for another 15 min at 37 °C, followed by 2 PBS washes and imaging on a Nikon Eclipse Ti2000 epifluorescence microscope run with NIS-Elements Advanced Research software (Nikon, USA) and equipped with an EXi blue fluorescent microscopy camera (QImaging, Canada). For enumerating parasites, tiled 2 × 2 images with 15% overlapping edges were taken using a 40 × dry objective (0.7 NA), and for finer details, Z stack images were acquired using a 60 × oil objective (1.4 NA). Lectin positive cells in focus were first counted, followed by DMC1.
For compound dose-response studies, the same assay was performed in 384-well plates and imaged using a 20 × dry objective (NA = 0.45). Tiled 4 × 4 to 6 × 6 images were taken. Images were analyzed using ImageJ software and the custom macro provided in Supplementary Method 2.

[4] = yes/no grouping by phenotypic assay result

Row | SMILES | Invasion Assay: Mean % Inhibition (parasites), Average (C. parvum [1]) | Invasion Assay: Mean % Inhibition (parasites), Replicate 1a (C. parvum [1]) | Invasion Assay: Mean % Inhibition (parasites), Replicate 2a (C. parvum [1]) | DNA Synthesis Assay: Mean % Inhibition of EdU-labeling (normalized to parasite numbers), Average (C. parvum [2]) | DNA Synthesis Assay: Mean % Inhibition of EdU-labeling (normalized to parasite numbers), Replicate 1 (C. parvum [2]) | DNA Synthesis Assay: Mean % Inhibition of EdU-labeling (normalized to parasite numbers), Replicate 2 (C. parvum [2]) | Asexual to sexual differentiation: Mean % DMC1 inhibition (normalized to host nuclei), Average [3] | Asexual to sexual differentiation: Mean % DMC1 inhibition (normalized to host nuclei), Replicate 1a [3] | Asexual to sexual differentiation: Mean % DMC1 inhibition (normalized to host nuclei), Replicate 2a [3] | Asexual to sexual differentiation: Mean % DMC1 inhibition (normalized to host nuclei), Replicate 3a [3] | effect on host cell invasion / parasitophorous vacuole formation (C. parvum [1]; result in words) | Asexual to sexual differentiation: Mean % DMC1 inhibition (normalized to host nuclei), Replicate 4a ([3]; single replicate 4) | Asexual to sexual differentiation: Mean % DMC1 inhibition (normalized to host nuclei), Replicate 5a ([3]; single replicate 5) | DNA synthesis (mean % inhibition) (C. parvum [2]; EdU added 9 h post-infection for 2 h) | DNA Synthesis Assay: Mean % Inhibition of EdU-labeling (normalized to parasite numbers), Replicate 3 (C. parvum [2]) | Sporozoite invasion (C. parvum [1]; [4]) | DNA synthesis (C. parvum [2]; [4])
1 | CCOc1ccc2cc(-c3nn(CC4CCN(C)CC4)c4ncnc(N)c34)ccc2n1 [BKI-1369] | -7.94% | -5% | -11% | 16.97% | 25.00% | 8.94% | 41.93% | -4.30% | 59.32% | 70.76% |  |  |  |  |  |  | 
2 | CC(=O)Oc1ccccc1C(=O)Nc1ncc([N+](=O)[O-])s1 [Nitazoxanide] | 13.83% | 11% | 17% | -9.16% | -33.81% | 15.50% | 81.79% | 79.14% | 81.57% | 59.72% | no significant effect on parasitophorous vacuole formation | 95.07% | 93.41% |  |  |  | 
3 | Cc1cn(-c2cc(NC(=O)c3ccc(C)c(Nc4nccc(-c5cccnc5)n4)c3)cc(C(F)(F)F)c2)cn1 [Nilotinib] | -21.88% | -24% | -19% | 22.05% | 29.68% | 14.41% | 70.96% | 66.12% | 75.79% |  |  |  |  |  |  |  | 
4 | Cc1cc(/C=C/c2ccc3cc(N(C)C)ccc3[n+]2C)c(C)n1-c1ccccc1 [Pyrvinium pamoate] | 25.69% | 30% | 22% |  | 94.57% | 70.33% | 68.07% | 51.94% | 84.21% |  |  |  |  | 88.30% |  |  | 
5 | CSc1ccccc1C(=O)Nc1nc(-c2ccccn2)cs1 [MMV001246] | -7.41% | -15% | 0.521% | 72.11% | 57.69% | 70.62% | 45.66% | 48.08% | 43.24% |  |  |  |  |  | 88.02% |  | 
6 | c1ccc(CNc2nc(NCc3ccccc3)c3ccccc3n2)cc1 [B-23] | 83.80% | 84% | 83% | 1.59% | -16.14% | 17.17% | -6.40% | -17.01% | 2.19% | -4.38% |  |  |  |  | 3.74% | yes | no
7 | CC(C)c1c(C(=O)Nc2ccccc2)c(-c2ccccc2)c(-c2ccc(F)cc2)n1CC[C@@H](O)C[C@@H](O)CC(=O)O [Atorvastatin] | -38.43% | -51% | -26% | -4.60% | -2.45% | -19.78% | 36.34% | 55.77% | 16.91% |  |  |  |  |  | 8.45% |  | 
